We go through six compounds from PubChem BioAssay (NCI).

Each structure is given as a SMILES string.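 Step 1: Grow cells in 96-well plates. Step 2: Expose to compound for 48 hours at 5 concentrations. Step 3: Interpolate endpoints linearly; if unreached, use highest concentration. The concentration for 50% growth inhibition is given as GI50. At the TGI there is no net growth.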

Some test systems named below: LXFL 529 NSCLC; SNB-78 CNS; XF 498 CNS; HOP-18 NSCLC; DMS 273 small cell lung; KM20L2 colon; DLD-1 colon; SN12K1 renal; DMS 114 small cell lung; P388/ADR leukemia; RXF-631 renal.
What all share (test): NCI tumour cell line growth inhibition, 48 h

Take `Nc1cccc(-c2cc(=O)c3cc4c(cc3[nH]2)OCO4)c1`: the TGI in the assay on LXFL 529 NSCLC was more than 100 µM; in the assay with SNB-78 CNS it was more than 100 µM; in the assay on XF 498 CNS, more than 100 µM; in the assay with HOP-18 NSCLC it was more than 100 µM; in the assay with DMS 273 small cell lung, 3.83 µM.

In the case of `[CH3][Sn]([CH3])([CH3])[S]C(=S)N1CCOCC1`, the GI50 in the assay with SNB-78 CNS was 9.94 µM; in the assay on XF 498 CNS it was 0.643 µM; with HOP-18 NSCLC, 3.85 µM; in the assay with KM20L2 colon, 0.789 µM; with DLD-1 colon it was 0.162 µM; in the assay with SN12K1 renal, 1.12 µM. Further, the GI50 in the assay with DMS 273 small cell lung was 0.508 µM; in the assay with DMS 114 small cell lung, 0.772 µM; in the assay on P388/ADR leukemia, 0.136 µM. Moreover, the TGI in the assay on SNB-78 CNS is more than 100 µM; in the assay on XF 498 CNS it was 5.97 µM; in the assay on HOP-18 NSCLC it was more than 100 µM; with KM20L2 colon it was 8.2 µM; with DLD-1 colon, 5.54 µM; in the assay with SN12K1 renal it was 12.1 µM. For the same compound, the TGI worked out at 6.13 µM in the assay with DMS 273 small cell lung, 3.72 µM in the assay with DMS 114 small cell lung and 0.902 µM in the assay on P388/ADR leukemia.

On to `Cc1nc2ccc(NCCN(C)C)c3c(=O)c4ccccc4n1c23`, for which the TGI was 22.6 µM in the assay with LXFL 529 NSCLC; 23.9 µM in the assay with SNB-78 CNS; 51.2 µM with HOP-18 NSCLC; 16.9 µM with KM20L2 colon; 21.3 µM with DLD-1 colon; 15.8 µM in the assay on RXF-631 renal. Also, the TGI with DMS 114 small cell lung was 21.5 µM.

As for `CNC(=S)N/N=C/C(C)=N/NC(=S)NC`, the TGI in the assay with SNB-78 CNS, in the assay on HOP-18 NSCLC, in the assay on KM20L2 colon, in the assay with DMS 273 small cell lung and with DMS 114 small cell lung was more than 100 µM each time.

Regarding `C/C(=C\C(=O)Nc1ccc2n[nH]nc2c1)Nc1ccc2n[nH]nc2c1`, the TGI with LXFL 529 NSCLC, in the assay with SNB-78 CNS, with HOP-18 NSCLC, in the assay with KM20L2 colon, with DLD-1 colon and in the assay with RXF-631 renal was more than 100 µM in each case. Also, the TGI in the assay on DMS 114 small cell lung was more than 100 µM.

Take `Nc1nc(SCc2ccccc2Cl)c2ncn(C3OC(CO)C(O)C3O)c2n1` (stereo not drawn): the TGI in the assay with LXFL 529 NSCLC, with HOP-18 NSCLC, with KM20L2 colon, with DLD-1 colon, with DMS 273 small cell lung and in the assay on DMS 114 small cell lung was more than 100 µM throughout.
